Data reported in PMC5218480 (PLoS ONE, 2017).

Test system: MV-4-11 cells
Test: Gene expression microarray analysis (Affymetrix PrimeView) and GSEA
Type: cell-based, human
Parameters: RFU PODN (11730768_x_at) / Fold change /veh PODN (11730768_x_at) / RFU LINC00158 (11744669_a_at) / Fold change /veh LINC00158 (11744669_a_at) / RFU DUSP10 (11751237_a_at) / Fold change /veh DUSP10 (11751237_a_at) / RFU ID3 (11757404_x_at) / Fold change /veh ID3 (11757404_x_at) / RFU PLEKHG5 (11737974_s_at) / Fold change /veh PLEKHG5 (11737974_s_at) / RFU LRRC4B (11730491_at) / Fold change /veh LRRC4B (11730491_at) / RFU GIMAP4 (11747438_a_at) / Fold change /veh GIMAP4 (11747438_a_at) / RFU KRT8 (11758183_x_at) / Fold change /veh KRT8 (11758183_x_at) / RFU CNN1 (11734310_a_at) / Fold change /veh CNN1 (11734310_a_at) / RFU VPS37D (11726825_at) / Fold change /veh VPS37D (11726825_at) / RFU C10orf10 (11716522_x_at) / Fold change /veh C10orf10 (11716522_x_at) / RFU KIR2DL2 /// KIR2DL4 /// KIR2DL5A /// KIR2DL5B /// KIR2DS1 /// KIR2DS2 /// KIR2DS3 /// KIR2DS4 /// KIR3DL3 /// KIR3DL3 /// KIR3DS1 (11738374_at) / Fold change /veh KIR2DL2 /// KIR2DL4 /// KIR2DL5A /// KIR2DL5B /// KIR2DS1 /// KIR2DS2 /// KIR2DS3 /// KIR2DS4 /// KIR3DL3 /// KIR3DL3 /// KIR3DS1 (11738374_at) / RFU C1QL1 (11718748_at) / Fold change /veh C1QL1 (11718748_at) / RFU TMPRSS4 (11747572_a_at) / Fold change /veh TMPRSS4 (11747572_a_at) / RFU HAMP (11756126_x_at) / Fold change /veh HAMP (11756126_x_at) / RFU RNFT2 (11725882_a_at) / Fold change /veh RNFT2 (11725882_a_at) / RFU NR4A2 (11747474_a_at) / Fold change /veh NR4A2 (11747474_a_at) / RFU ABCC12 (11746883_a_at) / Fold change /veh ABCC12 (11746883_a_at) / RFU TMEM136 (11760407_x_at) / Fold change /veh TMEM136 (11760407_x_at) / RFU CLDN22 /// WWC2 (11732394_at) / Fold change /veh CLDN22 /// WWC2 (11732394_at) / RFU HLA-DPB1 (11760878_x_at) / Fold change /veh HLA-DPB1 (11760878_x_at) / RFU SPINT1 (11716480_a_at) / Fold change /veh SPINT1 (11716480_a_at) / RFU GAP43 (11754022_s_at) / Fold change /veh GAP43 (11754022_s_at) / RFU A4GNT (11735810_at) / Fold change /veh A4GNT (11735810_at) / RFU PRB3 (11715151_x_at) / Fold change /veh PRB3 (11715151_x_at) / RFU TUBB4B (11761932_at) / Fold change /veh TUBB4B (11761932_at) / RFU CAPN14 (11732068_a_at) / Fold change /veh CAPN14 (11732068_a_at) / RFU TMCC2 (11721928_a_at) / Fold change /veh TMCC2 (11721928_a_at) / RFU IRGQ (11745062_a_at) / Fold change /veh IRGQ (11745062_a_at) / RFU FAM174B (11720279_a_at) / Fold change /veh FAM174B (11720279_a_at) / RFU TMPRSS4 (11748680_a_at) / Fold change /veh TMPRSS4 (11748680_a_at) / RFU FAM212B (11763350_a_at) / Fold change /veh FAM212B (11763350_a_at) / RFU PLEKHG5 (11743358_a_at) / Fold change /veh PLEKHG5 (11743358_a_at) / RFU ZSCAN30 (11745921_a_at) / Fold change /veh ZSCAN30 (11745921_a_at) / RFU CMKLR1 (11741424_a_at) / Fold change /veh CMKLR1 (11741424_a_at) / RFU LOC101060620 /// MAPK8IP1 (11723275_at) / Fold change /veh LOC101060620 /// MAPK8IP1 (11723275_at) / RFU SPTSSB (11747773_x_at) / Fold change /veh SPTSSB (11747773_x_at) / RFU PRSS12 (11739890_at) / Fold change /veh PRSS12 (11739890_at) / RFU BIN1 (11741810_x_at) / Fold change /veh BIN1 (11741810_x_at) / RFU WNT11 (11732464_a_at) / Fold change /veh WNT11 (11732464_a_at) / RFU C10orf10 (11716521_a_at) / Fold change /veh C10orf10 (11716521_a_at) / RFU C5orf56 (11738089_at) / Fold change /veh C5orf56 (11738089_at) / RFU CYB561 (11721691_x_at) / Fold change /veh CYB561 (11721691_x_at) / RFU ANKRD19P (11752326_a_at) / Fold change /veh ANKRD19P (11752326_a_at) / RFU OR2T12 /// OR2T33 /// OR2T8 (11738714_s_at) / Fold change /veh OR2T12 /// OR2T33 /// OR2T8 (11738714_s_at) / RFU VCAN (11748164_a_at) / Fold change /veh VCAN (11748164_a_at) / RFU JSRP1 (11732532_at) / Fold change /veh JSRP1 (11732532_at) / RFU KRTAP10-11 (11738290_x_at) / Fold change /veh KRTAP10-11 (11738290_x_at) / RFU MYO3A (11730013_a_at) / Fold change /veh MYO3A (11730013_a_at) / RFU EBF3 (11725865_a_at) / Fold change /veh EBF3 (11725865_a_at) / RFU CAMK2N1 (11719241_x_at) / Fold change /veh CAMK2N1 (11719241_x_at) / RFU C5orf56 (11738088_a_at) / Fold change /veh C5orf56 (11738088_a_at) / RFU OLFML3 (11715873_a_at) / Fold change /veh OLFML3 (11715873_a_at) / RFU LOC100653217 /// NTM (11731650_a_at) / Fold change /veh LOC100653217 /// NTM (11731650_a_at) / RFU MAPK11 (11762145_a_at) / Fold change /veh MAPK11 (11762145_a_at) / RFU FIZ1 (11724087_x_at) / Fold change /veh FIZ1 (11724087_x_at) / RFU OASL (11726364_x_at) / Fold change /veh OASL (11726364_x_at) / RFU SOX15 (11748057_x_at) / Fold change /veh SOX15 (11748057_x_at) / RFU CD79A (11719716_a_at) / Fold change /veh CD79A (11719716_a_at) / RFU HIST1H1D (11736915_at) / Fold change /veh HIST1H1D (11736915_at) / RFU CASKIN2 (11723855_a_at) / Fold change /veh CASKIN2 (11723855_a_at) / RFU LOC730098 (11760151_x_at) / Fold change /veh LOC730098 (11760151_x_at) / RFU OR4N2 (11742367_at) / Fold change /veh OR4N2 (11742367_at) / RFU PRRT2 (11749266_a_at) / Fold change /veh PRRT2 (11749266_a_at) / RFU SNX32 (11753110_a_at) / Fold change /veh SNX32 (11753110_a_at) / RFU CDHR5 (11726645_a_at) / Fold change /veh CDHR5 (11726645_a_at) / RFU RCAN1 (11760418_a_at) / Fold change /veh RCAN1 (11760418_a_at) / RFU FAM167A (11723789_a_at) / Fold change /veh FAM167A (11723789_a_at) / RFU FAM26E (11764081_at) / Fold change /veh FAM26E (11764081_at) / RFU ISYNA1 (11749810_s_at) / Fold change /veh ISYNA1 (11749810_s_at) / RFU ACY1 (11761880_at) / Fold change /veh ACY1 (11761880_at) / RFU 11764098_at / Fold change /veh 11764098_at / RFU SAMD14 (11745864_x_at) / Fold change /veh SAMD14 (11745864_x_at) / RFU NPB (11741838_a_at) / Fold change /veh NPB (11741838_a_at) / RFU TMPRSS6 (11731388_a_at) / Fold change /veh TMPRSS6 (11731388_a_at) / RFU KRTAP10-2 (11738614_at) / Fold change /veh KRTAP10-2 (11738614_at) / RFU ARHGAP8 /// PRR5-ARHGAP8 (11727945_x_at) / Fold change /veh ARHGAP8 /// PRR5-ARHGAP8 (11727945_x_at) / RFU KRTAP5-7 /// NADSYN1 (11734609_at) / Fold change /veh KRTAP5-7 /// NADSYN1 (11734609_at) / RFU RASL12 (11751679_a_at) / Fold change /veh RASL12 (11751679_a_at) / RFU CDKN2B (11736163_a_at) / Fold change /veh CDKN2B (11736163_a_at) / RFU PRF1 (11729649_at) / Fold change /veh PRF1 (11729649_at) / RFU, ZNF638 /// ZNF638-IT1 / Fold change vs veh, ZNF638 /// ZNF638-IT1 / RFU, PANK3 / Fold change vs veh, PANK3 / RFU, SH3YL1 / Fold change vs veh, SH3YL1 / RFU, ZEB2 / Fold change vs veh, ZEB2 / RFU, NRIP1 / Fold change vs veh, NRIP1 / RFU, PTTG1IP / Fold change vs veh, PTTG1IP / RFU, CAPN2 / Fold change vs veh, CAPN2 / RFU, MED14 / Fold change vs veh, MED14 / RFU, SNORA58 / Fold change vs veh, SNORA58 / RFU, C1orf63 / Fold change vs veh, C1orf63 / RFU, LRRFIP1 / Fold change vs veh, LRRFIP1 / RFU, NDUFAF7 / Fold change vs veh, NDUFAF7 / RFU, SLC12A2 / Fold change vs veh, SLC12A2 / RFU, IBTK / Fold change vs veh, IBTK / RFU, ESF1 / Fold change vs veh, ESF1 / Fold change vs veh, TMEM50B / RFU, TAOK1 / Fold change vs veh, TAOK1 / RFU, ACBD3 / Fold change vs veh, ACBD3 / RFU, TMA16 / Fold change vs veh, TMA16 / RFU, RWDD3 / Fold change vs veh, RWDD3 / RFU, BCAT1 / Fold change vs veh, BCAT1 / RFU, EDEM3 / Fold change vs veh, EDEM3 / RFU, TMEM33 / Fold change vs veh, TMEM33 / RFU, WDR75 / Fold change vs veh, WDR75 / RFU, AHCTF1 / Fold change vs veh, AHCTF1 / RFU, TFRC / Fold change vs veh, TFRC / RFU, ZDHHC17 / Fold change vs veh, ZDHHC17 / RFU, NOM1 / Fold change vs veh, NOM1 / RFU, ARL8B / Fold change vs veh, ARL8B / RFU, ZBTB11 / Fold change vs veh, ZBTB11 / RFU, TAMM41 / Fold change vs veh, TAMM41 / RFU, KIAA1704 /// LOC100996395 / Fold change vs veh, KIAA1704 /// LOC100996395 / RFU, ING1 / Fold change vs veh, ING1 / RFU, TRMT61B / Fold change vs veh, TRMT61B / RFU, FUBP3 / Fold change vs veh, FUBP3 / RFU, TP53 / Fold change vs veh, TP53 / RFU, TNKS2 / Fold change vs veh, TNKS2 / RFU, ZFP14 / Fold change vs veh, ZFP14 / RFU, ACTR2 / Fold change vs veh, ACTR2 / RFU, PPP3R1 / Fold change vs veh, PPP3R1 / RFU, PIK3R1 / Fold change vs veh, PIK3R1 / RFU, HNRNPA1 / Fold change vs veh, HNRNPA1 / RFU, RNF170 / Fold change vs veh, RNF170 / RFU, ZNF28 / Fold change vs veh, ZNF28 / RFU, RNGTT / Fold change vs veh, RNGTT / RFU, OGT / Fold change vs veh, OGT / RFU, BRD1 / Fold change vs veh, BRD1 / RFU, MARS / Fold change vs veh, MARS / RFU, ZNF655 / Fold change vs veh, ZNF655 / RFU, FAHD1 / Fold change vs veh, FAHD1 / RFU, BDP1 / Fold change vs veh, BDP1 / RFU, LRRCC1 / Fold change vs veh, LRRCC1 / RFU, ARID1A / Fold change vs veh, ARID1A / RFU, ZNF146 / Fold change vs veh, ZNF146 / RFU, ZNF330 / Fold change vs veh, ZNF330 / RFU, GPN3 / Fold change vs veh, GPN3 / RFU, C9orf123 / Fold change vs veh, C9orf123 / RFU, N4BP2L2 / Fold change vs veh, N4BP2L2 / RFU, ARFIP1 / Fold change vs veh, ARFIP1 / RFU, FAM179B / Fold change vs veh, FAM179B / RFU, BCL10 / Fold change vs veh, BCL10 / RFU, UHRF1BP1L / Fold change vs veh, UHRF1BP1L / RFU, BET1 / Fold change vs veh, BET1 / RFU, CNOT2 / Fold change vs veh, CNOT2 / RFU, ZNF268 / Fold change vs veh, ZNF268 / Fold change vs veh, ZNF507 / RFU, DGCR2 / Fold change vs veh, DGCR2 / RFU, WDSUB1 / Fold change vs veh, WDSUB1 / Fold change vs veh, HSP90B1 /// MIR3652 / RFU, ADSS / Fold change vs veh, ADSS / RFU, GK / Fold change vs veh, GK / RFU, ZNF148 / Fold change vs veh, ZNF148 / RFU, TAF9 / Fold change vs veh, TAF9 / RFU, SLC1A5 / Fold change vs veh, SLC1A5 / RFU, SLMO2 / Fold change vs veh, SLMO2 / RFU, ABCC4 / Fold change vs veh, ABCC4 / RFU, LOC101060439 /// RAP1B / Fold change vs veh, LOC101060439 /// RAP1B / RFU, RFX7 / Fold change vs veh, RFX7 / RFU, GTPBP10 / Fold change vs veh, GTPBP10 / RFU, CNEP1R1 / Fold change vs veh, CNEP1R1 / RFU, BIVM-ERCC5 /// ERCC5 / Fold change vs veh, BIVM-ERCC5 /// ERCC5 / RFU, ILF3 / Fold change vs veh, ILF3 / RFU 11762660_at / Fold change /veh 11762660_at / RFU VCAN (11757783_s_at) / Fold change /veh VCAN (11757783_s_at) / RFU DDX43 (11728927_at) / Fold change /veh DDX43 (11728927_at) / RFU KRT8 (11758188_x_at) / Fold change /veh KRT8 (11758188_x_at) / RFU NKD1 (11759106_at) / Fold change /veh NKD1 (11759106_at) / RFU SRD5A1 (11742802_a_at) / Fold change /veh SRD5A1 (11742802_a_at) / RFU TPSAB1 /// TPSB2 (11721975_s_at) / Fold change /veh TPSAB1 /// TPSB2 (11721975_s_at) / RFU GSTM3 (11746129_a_at) / Fold change /veh GSTM3 (11746129_a_at) / RFU IL23R (11737362_x_at) / Fold change /veh IL23R (11737362_x_at) / RFU TMEM51 (11727254_a_at) / Fold change /veh TMEM51 (11727254_a_at) / RFU PIWIL2 (11732686_x_at) / Fold change /veh PIWIL2 (11732686_x_at) / RFU ORM1 (11744905_x_at) / Fold change /veh ORM1 (11744905_x_at) / RFU CCDC152 (11743942_at) / Fold change /veh CCDC152 (11743942_at) / RFU ECM1 (11717891_a_at) / Fold change /veh ECM1 (11717891_a_at) / RFU IL23R (11748794_a_at) / Fold change /veh IL23R (11748794_a_at) / RFU TNFAIP8L3 (11732012_x_at) / Fold change /veh TNFAIP8L3 (11732012_x_at) / RFU MBOAT4 (11741988_at) / Fold change /veh MBOAT4 (11741988_at) / RFU 11764193_at / Fold change /veh 11764193_at / RFU TMEM53 (11763286_at) / Fold change /veh TMEM53 (11763286_at) / RFU MAGEB2 (11727129_at) / Fold change /veh MAGEB2 (11727129_at) / RFU TMEM200A (11744735_a_at) / Fold change /veh TMEM200A (11744735_a_at) / RFU CCDC152 (11751479_a_at) / Fold change /veh CCDC152 (11751479_a_at) / RFU FAM211A (11726209_a_at) / Fold change /veh FAM211A (11726209_a_at) / RFU RGS16 (11746705_a_at) / Fold change /veh RGS16 (11746705_a_at) / RFU VCAN (11755009_s_at) / Fold change /veh VCAN (11755009_s_at) / RFU RHOB (11743442_s_at) / Fold change /veh RHOB (11743442_s_at) / RFU RGS16 (11720943_a_at) / Fold change /veh RGS16 (11720943_a_at) / RFU RGS16 (11720944_at) / Fold change /veh RGS16 (11720944_at) / RFU, VPS4B / Fold change vs veh, VPS4B / RFU, CREB1 / Fold change vs veh, CREB1 / RFU, DNAJC13 / Fold change vs veh, DNAJC13 / RFU, GNAQ / Fold change vs veh, GNAQ / RFU, CDK5R1 / Fold change vs veh, CDK5R1 / RFU, ZRANB3 / Fold change vs veh, ZRANB3 / RFU, CUL4A / Fold change vs veh, CUL4A / RFU, CCNY / Fold change vs veh, CCNY / RFU, UFL1 / Fold change vs veh, UFL1 / RFU, COG3 / Fold change vs veh, COG3 / RFU, DIAPH2 / Fold change vs veh, DIAPH2 / RFU, SKA2 / Fold change vs veh, SKA2 / RFU, AFF3 / Fold change vs veh, AFF3 / RFU, LMF1 / Fold change vs veh, LMF1 / RFU, IPO11 / Fold change vs veh, IPO11 / RFU, DFFB / Fold change vs veh, DFFB / RFU, FOXP1 / Fold change vs veh, FOXP1 / RFU, CARD8 / Fold change vs veh, CARD8 / RFU, STRN3 / Fold change vs veh, STRN3 / RFU, ADK / Fold change vs veh, ADK / RFU, RASSF2 / Fold change vs veh, RASSF2 / RFU, WIPF1 / Fold change vs veh, WIPF1 / RFU, LARP1B / Fold change vs veh, LARP1B / RFU, RASA1 / Fold change vs veh, RASA1 / RFU, RB1 / Fold change vs veh, RB1 / RFU, PPFIA1 / Fold change vs veh, PPFIA1 / RFU, MAT2A / Fold change vs veh, MAT2A / RFU, CCT5 / Fold change vs veh, CCT5 / RFU, WDR92 / Fold change vs veh, WDR92 / RFU, CUX1 / Fold change vs veh, CUX1 / RFU, TTC7A / Fold change vs veh, TTC7A / RFU, TMEM135 / Fold change vs veh, TMEM135 / RFU, DEPTOR / Fold change vs veh, DEPTOR / RFU, CPM / Fold change vs veh, CPM / RFU, DNAJB6 / Fold change vs veh, DNAJB6 / RFU, CACNA2D3 / Fold change vs veh, CACNA2D3 / RFU, DTX4 / Fold change vs veh, DTX4 / RFU, TFCP2 / Fold change vs veh, TFCP2 / RFU, GMCL1 /// GMCL1P1 / Fold change vs veh, GMCL1 /// GMCL1P1 / RFU, AEBP2 / Fold change vs veh, AEBP2 / RFU, SNHG1 /// SNORD22 /// SNORD25 /// SNORD26 /// SNORD27 /// SNORD28 /// SNORD29 /// SNORD31 / Fold change vs veh, SNHG1 /// SNORD22 /// SNORD25 /// SNORD26 /// SNORD27 /// SNORD28 /// SNORD29 /// SNORD31 / Fold change (Aza/veh), C12orf56 (ProbeSet 11735607_a_at) / Fold change (ACY-1035/veh), C12orf56 (ProbeSet 11735607_a_at) / Fold change (Aza/veh), FGFR1OP (ProbeSet 11751329_s_at) / Fold change (ACY-1035/veh), FGFR1OP (ProbeSet 11751329_s_at) / Fold change (Aza/veh), VPS36 (ProbeSet 11739960_a_at) / Fold change (ACY-1035/veh), VPS36 (ProbeSet 11739960_a_at) / RFU SYPL1 (11715823_x_at) / Fold change /veh SYPL1 (11715823_x_at) / RFU IGFBP7 (11715501_s_at) / Fold change /veh IGFBP7 (11715501_s_at) / RFU REEP3 (11722064_at) / Fold change /veh REEP3 (11722064_at) / RFU IGLL1 (11728026_x_at) / Fold change /veh IGLL1 (11728026_x_at): dose or concentration left out as unconfirmed
Settings: MV-4-11 cells, 48 hours

Structure (SMILES): Nc1ccc(-c2cccs2)cc1NC(=O)c1ccc2c(c1)cc(C1CC1)n2CCN1CCOCC1 [ACY-1035]
- Fold change /veh PRRT2 (11749266_a_at): 1.00
